In patent US8853246B2 (Dow AgroSciences LLC, priority 2009, dated 2014):

What was measured:
[1] = system: Green Peach Aphid (Myzus Persicae); assay: Insecticidal test for green peach aphid in foliar spray assay (col. MYZUPE); format: in vivo; settings: Myzus persicae, 72 h, green peach aphid, read-out: MYZUPE 200 ppm (Corrected % Control, rating)
Procedure, shortened: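 Cabbage seedlings with 2-3 true leaves, infested with 20-50 wingless adult and nymph aphids one day earlier, sprayed to runoff at 200 ppm (acetone/methanol stock diluted in 0.025% Tween 20), four pots per treatment. After 3 days at ~25 °C, 40% RH, live aphids counted; corrected % control versus solvent-sprayed plants.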

[2] = system: Cotton Aphid (Aphis Gossypii); assay: Insecticidal test for cotton aphid in foliar spray assay (col. APHIGO); format: in vivo; settings: Aphis gossypii, 72 h, read-out: APHIGO 200 ppm (Corrected % Control, rating)
Experimental: The compounds were tested against cotton aphid, green peach aphid, and sweet potato whitefly using procedures described in the following examples and reported in Table 2.
In each case of Table 2, the rating scale is as follows at 200 ppm.
Insecticidal Test for Cotton Aphid (Aphis Gossypii) in Foliar Spray Assay
Squash or cotton seedlings with fully expanded cotyledon leaves were trimmed to one cotyledon per plant and infested with cotton aphid (wingless adult and nymph) one day prior to chemical application. Each plant was examined before chemical application to ensure uniform infestation (ca. 30-70 aphids per plant). Compounds (2 mg) were dissolved in 2 mL of acetone/methanol (1:1) solvent, forming stock solutions of 1000 ppm. The stock solutions were diluted 5× with 0.025% Tween 20 in H2O to obtain a solution at 200 ppm. A hand-held Devilbiss aspirator type sprayer was used to apply the spray solutions until runoff to both sides of the squash cotyledon leaves. Four plants (4 replications) were used for each concentration of each compound. Reference plants (solvent check) were sprayed with the diluent only. Treated plants were held in a holding room for three days at approximately 25° C. and 40% RH before the number of live aphids on each plant was recorded. Insecticidal activity was measured by Corrected % Control using Abbott's correction formula and presented in Table 2 (see col. “APHIGO”): Corrected % Control=100*(X−Y)/X • where X=No. of live aphids on solvent check plants • Y=No. of live aphids on treated plants

[3] = system: Sweetpotato Whitefly-Crawler (Bemisia Tabaci); assay: Insecticidal test for sweetpotato whitefly-crawler in foliar spray assay (col. BEMITA); format: in vivo; settings: Bemisia tabaci, sweetpotato whitefly-crawler, read-out: BEMITA 200 ppm (Corrected % Control, rating)
Procedure, shortened: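 Cotton plants (one 3-5 cm true leaf) infested with whitefly eggs (100-300/plant), held 5-6 days at 82° F, 50% RH until crawlers developed. Sprayed to runoff at 200 ppm (acetone stock diluted in 0.025% Tween 20), four plants per treatment. Live nymphs counted after 8-9 days; % control by Abbott's correction versus solvent check.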

SMILES	melting point [°C]	pest or weed control at 200 ppm [1] [%]	pest or weed control at 200 ppm [2] [%]	pest or weed control at 200 ppm [3] [%]
CSC(C)CC(=O)Nc1sc(-c2cncc(F)c2)nc1C (stereo not drawn) [Compound 218]	130 to 133	80 to 100	80 to 100	80 to 100
C=CCSCC(C)C(=O)Nc1sc(-c2cncc(F)c2)nc1C (stereo not drawn) [Compound 226]	76 to 79	80 to 100	80 to 100	80 to 100
CN(C(=O)OC(C)(C)C)c1sc(-c2cccnc2)nc1Cl [Compound 228, (4-chloro-2-pyridin-3-yl-thiazol-5-yl)-methyl-carbamic acid tert-butyl ester]	119 to 122	80 to 100	80 to 100	80 to 100
C=CC[S+]([O-])CC(C)C(=O)Nc1sc(-c2cncc(F)c2)nc1C (stereo not drawn) [Compound 229]	170 to 174	80 to 100	80 to 100	< 80
CN(C(=O)OC(C)(C)C)c1sc(-c2cccnc2)nc1Br [Compound 242, (4-bromo-2-pyridin-3-yl-thiazol-5-yl)-methyl-carbamic acid tert-butyl ester]	88 to 91	80 to 100	< 80	80 to 100
CN(C(=O)OC(C)(C)C)c1cnc(-c2cncc(F)c2)s1 [Compound 243]	148 to 151	80 to 100	80 to 100	80 to 100
COc1ccc(CN(C(=O)OC(C)(C)C)c2cnc(-c3cccnc3)s2)cc1 [Compound 244]	124 to 126	< 80	< 80	< 80
CCN(C(=O)OC(C)(C)C)c1cnc(-c2cncc(F)c2)s1 [Compound 245]	89 to 92	80 to 100	80 to 100	80 to 100
CCN(C(=O)C(C)(C)CSC)c1sc(-c2cncc(F)c2)nc1C [Compound 255]		80 to 100	80 to 100	80 to 100
CSCC(C)C(=O)N(C)c1sc(-c2cncc(F)c2)nc1Cl (stereo not drawn) [Compound 262]		80 to 100	80 to 100	80 to 100
CC(C[S+](C)[O-])C(=O)N(C)c1sc(-c2cncc(F)c2)nc1Cl (stereo not drawn) [Compound 270]		80 to 100	< 80	80 to 100
CN(C(=O)CC[S+](C)[O-])c1sc(-c2cncc(F)c2)nc1Cl (stereo not drawn) [Compound 272]	123 to 126	80 to 100	80 to 100	80 to 100
CCN(C(=O)CCSC)c1sc(-c2cncc(F)c2)nc1Cl [Compound 274]		80 to 100	80 to 100	80 to 100
CCN(C(=O)C(C)CSC)c1sc(-c2cncc(F)c2)nc1Cl (stereo not drawn) [Compound 279]		80 to 100	80 to 100	80 to 100
